From patent US10221163B2 (priority 2015, dated 2019)
Where two headings read alike, the source gives them in different places.

What was measured:
[1] = test system: Klebsiella pneumoniae expressing VIM-1 (IHMA599644); assay type: cell-based; details: for Klebsiella pneumoniae MITC95: VIM-1 strain IHMA599644, with imipenem 1 μg/ml, 95% inhibition of growth; for Klebsiella pneumoniae expressing VIM-1 (IHMA599644) MITC95: with imipenem 1 μg/ml, 95% inhibition of bacterial growth
Summary of the method: (§1)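 Colonies grown overnight on blood agar at 35° C were suspended in saline, diluted 1:100 into 1.1×CAMHB and dispensed. Imipenem was added to 1 μg/ml, then test compound. After 22 hours to 24 hours at 35° C, absorbance was recorded.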

[2] = test system: Escherichia coli expressing NDM-1 (CLB30005, CLB30016); assay type: cell-based; details: with imipenem 1 μg/ml; for Escherichia coli MITC95: NDM-1 strain, 95% inhibition of growth; for Escherichia coli expressing NDM-1 (CLB30016) MITC95: 95% inhibition of bacterial growth
Summary of the method: as §1

[3] = test system: Serratia marcescens expressing IMP-1 (CL5741); assay type: cell-based; details: for Serratia marcescens MITC95: IMP-1 strain CL5741, with imipenem 1 μg/ml, 95% inhibition of growth; for Serratia marcescens expressing IMP-1 (CL5741) MITC95: with imipenem 1 μg/ml, 95% inhibition of bacterial growth
Summary of the method: as §1

[4] = test system: Pseudomonas aeruginosa MB9798 vs MB9799
Summary of the method: (§2)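 PAO1 pair, broth microdilution; fixed β-lactam (imipenem/ceftazidime) at ~CLSI breakpoint + fixed class A/C BLI for AmpC; serial MBLi titration; endpoint = MBLi conc. restoring susceptibility; MB9798:MB9799 ratio = efflux liability.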

[5] = biological target: VIM-1 (Pseudomonas aeruginosa (strain ATCC 15692 / DSM 22644 / CIP 104116 / JCM 14847 / LMG 12228 / 1C / PRS 101 / PAO1), UniProt A0A0F7KYQ8); experiment: biochemical; details: CCF2-FA substrate, 30 pM enzyme, 2 hours at 25° C.
Summary of the method: (§3)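 Two-hour, 25° C incubation of enzyme with inhibitor and CCF2-FA (7-hydroxycoumarin–cephalosporin–fluorescein). Fluorescence read-out; IC50 via 4-parameter fit.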

[6] = test system: Pseudomonas aeruginosa efflux+ (MB9798), IMP-1; assay type: cell-based; set-up: Concentration of metallo-β-lactamase inhibitor which restores susceptibility of efflux + (MB9798) strain to imipenem: unit not given here; details: C, D serine β-lactamase inhibitor closely related to relebactam; for P. aeruginosa expressing IMP-1, efflux + (MB9798) MITC95: concentration restoring susceptibility to imipenem at 2 μg/mL in the presence of a class A; for Concentration of metallo-β-lactamase inhibitor which restores susceptibility of efflux + (MB9798) strain to imipenem: imipenem at 2 μg/mL, in the presence of a class A
Summary of the method: as §2

[7] = biological target: IMP-1 (Serratia marcescens, UniProt P52699); experiment: biochemical; assay type: biochemical; details: fluorescence assay, CCF2-FA substrate, 2 pM enzyme, 2 hours at 25° C.; read-out: IMP-1 IC50
Summary of the method: as §3

[8] = biological target: NDM-1 (Klebsiella pneumoniae, UniProt C7C422); experiment: biochemical; assay type: biochemical; details: fluorescence assay, CCF2-FA substrate, 1 pM enzyme, 2 hours at 25° C.; read-out: NDM-1 IC50
Summary of the method: as §3

[9] = test system: Pseudomonas aeruginosa efflux− (MB9799), IMP-1; assay type: cell-based; details: C, D serine β-lactamase inhibitor closely related to relebactam; for P. aeruginosa expressing IMP-1, efflux − (MB9799) MITC95: concentration restoring susceptibility to imipenem at 2 μg/mL in the presence of a class A; for Concentration of metallo-β-lactamase inhibitor which restores susceptibility of efflux − (MB9799) strain to imipenem: imipenem at 2 μg/mL, in the presence of a class A
Summary of the method: as §2

[10] = ratio MITC95 PA_9798/MITC95 PA_9799
[11] = fold difference between efflux+ (MB9798) and efflux− (MB9799) strains, imipenem at 2 μg/mL
[12] = fluorescence assay, read-out: VIM-1 IC50

NDM-1, sequence (C7C422 whole entry, looked up, species assumed): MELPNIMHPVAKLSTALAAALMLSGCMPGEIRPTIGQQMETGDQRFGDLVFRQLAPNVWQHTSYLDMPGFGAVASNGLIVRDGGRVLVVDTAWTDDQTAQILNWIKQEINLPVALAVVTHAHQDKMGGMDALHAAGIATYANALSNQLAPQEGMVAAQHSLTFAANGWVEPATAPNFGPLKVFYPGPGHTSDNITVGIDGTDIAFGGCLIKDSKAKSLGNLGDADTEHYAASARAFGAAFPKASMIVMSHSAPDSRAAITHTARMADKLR
IMP-1, sequence (P52699 whole entry, looked up, species assumed): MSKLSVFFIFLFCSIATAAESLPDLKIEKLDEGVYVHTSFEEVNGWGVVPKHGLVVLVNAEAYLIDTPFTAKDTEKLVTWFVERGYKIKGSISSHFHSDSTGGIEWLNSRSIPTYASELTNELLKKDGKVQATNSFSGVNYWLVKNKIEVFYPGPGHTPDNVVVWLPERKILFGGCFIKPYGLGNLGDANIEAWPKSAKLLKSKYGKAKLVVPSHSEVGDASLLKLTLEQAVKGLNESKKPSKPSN

SMILES | Klebsiella pneumoniae MITC95 [1] | Escherichia coli MITC95 [2] | Serratia marcescens MITC95 [3] | Efflux ratio [4, 10] | IC50 ([5]; VIM-1 IC50, fluorescence assay) | P. aeruginosa expressing IMP-1, efflux + (MB9798) MITC95 [6] | IC50 [7] | IC50 [8] | P. aeruginosa expressing IMP-1, efflux − (MB9799) MITC95 [9] | Efflux ratio [4, 11] | IC50 [5, 12] | Concentration of metallo-β-lactamase inhibitor which restores susceptibility of efflux + (MB9798) strain to imipenem [6] | Concentration of metallo-β-lactamase inhibitor which restores susceptibility of efflux − (MB9799) strain to imipenem [9] | Klebsiella pneumoniae expressing VIM-1 (IHMA599644) MITC95 [1] | Escherichia coli expressing NDM-1 (CLB30016) MITC95 [2] | Serratia marcescens expressing IMP-1 (CL5741) MITC95 [3]
Nc1nc2c(-c3ccc(S(=O)(=O)NC[C@@H]4CCNC4)c(S(N)(=O)=O)c3-c3nn[nH]n3)cccc2[nH]1 [Example 263, (R)-4-(2-amino-1H-benzo[d]imidazol-4-yl)-N1-(pyrrolidin-3-ylmethyl)-3-(2H-tetrazol-5-yl)benzene-1,2-disulfonamide] | 1.563 µM | 0.3906 µM | 0.7813 µM | 1.00 | 0.205 nM | 0.7813 µM | 0.864 nM | 0.0461 nM | 0.7813 µM | – | – | – | – | – | – | –
NC[C@H](N)CNS(=O)(=O)c1ccc(-c2ccc(N)nc2)c(-c2nn[nH]n2)c1S(N)(=O)=O [Example 415] | 3.125 µM | 0.1953 µM | 1.172 µM | – | – | – | 0.801 nM | 0.361 nM | – | 1.00 | 0.425 nM | 1.563 | 1.563 | – | – | –
Nc1nc2c(-c3ccc(S(=O)(=O)N4CCC(CO)CC4)c(S(N)(=O)=O)c3-c3nnn[nH]3)cccc2s1 [Example 25, 3-(2-amino-1,3-benzothiazol-4-yl)-6-{[4-(hydroxymethyl)piperidin-1-yl]sulfonyl}-2-(1H-tetrazol-5-yl)benzenesulfonamide] | – | – | – | 16.00 | – | 50 µM | 2.24 nM | 3.02 nM | 3.125 µM | – | 4.52 nM | – | – | 25 µM | 25 µM | 6.25 µM
NS(=O)(=O)c1c(S(=O)(=O)N[C@@H]2CNC[C@@H]2O)ccc(-c2cccc3[nH]nnc23)c1-c1nn[nH]n1 [Example 412] | 6.25 µM | 3.125 µM | 3.125 µM | – | – | – | 2.57 nM | 0.108 nM | – | 0.50 | 0.321 nM | 1.563 | 3.125 | – | – | –
NC[C@@H]1C[C@@H](NS(=O)(=O)c2ccc(-c3cccc4[nH]c(N)nc34)c(-c3nn[nH]n3)c2S(N)(=O)=O)CN1 [Example 425, 4-(2-amino-1H-benzo[d]imidazol-4-yl)-N^1-((3R,5S)-5-(aminomethyl)pyrrolidin-3-yl)-3-(2H-tetrazol-5-yl)benzene-1,2-disulfonamide] | 3.125 µM | 0.7813 µM | 3.125 µM | – | – | – | 0.886 nM | 0.0419 nM | – | 1.00 | 0.16 nM | 1.563 | 1.563 | – | – | –
Nc1nc2c(-c3ccc(S(=O)(=O)N4CCC(N)CC4)c(S(N)(=O)=O)c3-c3nn[nH]n3)cccc2s1 [Example 148, 3-(2-aminobenzo[d]thiazol-4-yl)-6-((4-aminopiperidin-1-yl)sulfonyl)-2-(2H-tetrazol-5-yl)benzenesulfonamide] | – | – | – | 2.00 | – | 3.125 µM | 0.49 nM | 0.213 nM | 1.563 µM | – | 0.749 nM | – | – | 6.25 µM | 12.5 µM | 3.125 µM
Nc1nc2c(-c3ccc(S(=O)(=O)N4CC5(CCNC5)C4)c(S(N)(=O)=O)c3-c3nnn[nH]3)cccc2s1 [Example 48, 3-(2-amino-1,3-benzothiazol-4-yl)-6-(2,6-diazaspiro[3.4]oct-2-ylsulfonyl)-2-(1H-tetrazol-5-yl)benzenesulfonamide] | – | – | – | 1.00 | – | 1.563 µM | 0.951 nM | 0.258 nM | 1.563 µM | – | 0.49 nM | – | – | 3.125 µM | 6.25 µM | 3.125 µM
NCCNS(=O)(=O)c1ccc(-c2cccnc2N)c(-c2nn[nH]n2)c1S(N)(=O)=O [Example 358, N1-(2-aminoethyl)-4-(2-aminopyridin-3-yl)-3-(2H-tetrazol-5-yl)benzene-1,2-disulfonamide] | 1.563 µM | 0.2441 µM | 0.3906 µM | 2.00 | – | 1.563 µM | 4.05 nM | 0.319 nM | 0.7813 µM | – | 0.205 nM | – | – | – | – | –
CNc1ccc(-c2ccc(S(=O)(=O)N[C@@H]3CCNC3)c(S(N)(=O)=O)c2-c2nn[nH]n2)cn1 [Example 242] | – | – | – | 1.00 | – | 0.7813 µM | 0.157 nM | 0.0611 nM | 0.7813 µM | – | 0.0841 nM | – | – | 1.563 µM | 0.7813 µM | 0.7813 µM
CN1CCN(S(=O)(=O)c2ccc(-c3cccc4sc(N)nc34)c(-c3nnn[nH]3)c2S(N)(=O)=O)CC1 [Example 27, 3-(2-amino-1,3-benzothiazol-4-yl)-6-[(4-methylpiperazin-1-yl)sulfonyl]-2-(1H-tetrazol-5-yl)benzenesulfonamide] | – | – | – | 2.00 | – | 12.5 µM | 1.59 nM | 0.825 nM | 6.25 µM | – | 1.92 nM | – | – | 25 µM | 12.5 µM | 6.25 µM
